How the values were obtained:
[1] = tested on: Human immunodeficiency virus 1; experiment: Reactivation of HIV-1 latency infected in GFP-fused human J-Lat 10.6 cells assessed as increase in GFP expression incubated for 48 hrs by flow cytometry; assay type: functional, organism-based; details: Human immunodeficiency virus 1, J-Lat 10.6, 48 h
[2] = tested on: Human immunodeficiency virus 1; experiment: Reactivation of HIV-1 latency infected in GFP-fused human J-Lat C11 cells assessed as increase in GFP expression at 1 to 100000 nM incubated for 48 hrs by flow cytometry; assay type: functional; details: dose 1-100000 nM
[3] = tested on: Human immunodeficiency virus 1; experiment: Reactivation of HIV-1 latency infected in GFP-fused human J-Lat 10.6 cells assessed as increase in GFP expression at 1 to 100000 nM incubated for 48 hrs by flow cytometry; assay type: functional; details: dose 1-100000 nM
[4] = tested on: Human immunodeficiency virus 1; experiment: Reactivation of HIV-1 latency infected in GFP-fused human J-Lat C11 cells assessed as increase in GFP expression incubated for 48 hrs by flow cytometry; assay type: functional, organism-based; details: Human immunodeficiency virus 1, J-Lat C11, 48 h
[5] = Cytotoxicity against human J-Lat C11 cells assessed as reduction in cell viability incubated for 72 hrs by CCK-8 assay; assay type: toxicity, cell-based
[6] = Cytotoxicity against human J-Lat 10.6 cells assessed as reduction in cell viability incubated for 72 hrs by CCK-8 assay; assay type: toxicity, cell-based
[7] = Inhibition of HIV-1 latency infected in human ACH-2 cells assessed as fold increase in HIV production by measuring p24 level incubated for 48 hrs in presence of vorinostat by ELISA; assay type: functional, Human immunodeficiency virus 1, ACH-2 cell line
[8] = Inhibition of HIV-1 latency infected in human ACH-2 cells assessed as fold increase in HIV production by measuring p24 level incubated for 48 hrs in presence of 5-azacytidine by ELISA; assay type: functional, Human immunodeficiency virus 1, ACH-2 cell line
[9] = tested on: Human immunodeficiency virus 1; experiment: Reversal of HIV-1 latency infected in GFP-fused human J-Lat C11 cells assessed as increase in GFP expression at 100 uM incubated for 72 hrs by flow cytometry; assay type: functional
[10] = Inhibition of HIV-1 latency infected in human ACH-2 cells assessed as fold increase in HIV production by measuring p24 level incubated for 48 hrs in presence of BIX01294 by ELISA; assay type: functional, Human immunodeficiency virus 1, ACH-2 cell line
[11] = molecular target: Histone deacetylase 4 (Homo sapiens, UniProt P56524); experiment: Inhibition of recombinant human HDAC4 expressed in baculovirus expression system using KI-104 as substrate incubated for 3 hrs by fluorescence-based assay
Sequence of Histone deacetylase 4 (P56524 whole entry): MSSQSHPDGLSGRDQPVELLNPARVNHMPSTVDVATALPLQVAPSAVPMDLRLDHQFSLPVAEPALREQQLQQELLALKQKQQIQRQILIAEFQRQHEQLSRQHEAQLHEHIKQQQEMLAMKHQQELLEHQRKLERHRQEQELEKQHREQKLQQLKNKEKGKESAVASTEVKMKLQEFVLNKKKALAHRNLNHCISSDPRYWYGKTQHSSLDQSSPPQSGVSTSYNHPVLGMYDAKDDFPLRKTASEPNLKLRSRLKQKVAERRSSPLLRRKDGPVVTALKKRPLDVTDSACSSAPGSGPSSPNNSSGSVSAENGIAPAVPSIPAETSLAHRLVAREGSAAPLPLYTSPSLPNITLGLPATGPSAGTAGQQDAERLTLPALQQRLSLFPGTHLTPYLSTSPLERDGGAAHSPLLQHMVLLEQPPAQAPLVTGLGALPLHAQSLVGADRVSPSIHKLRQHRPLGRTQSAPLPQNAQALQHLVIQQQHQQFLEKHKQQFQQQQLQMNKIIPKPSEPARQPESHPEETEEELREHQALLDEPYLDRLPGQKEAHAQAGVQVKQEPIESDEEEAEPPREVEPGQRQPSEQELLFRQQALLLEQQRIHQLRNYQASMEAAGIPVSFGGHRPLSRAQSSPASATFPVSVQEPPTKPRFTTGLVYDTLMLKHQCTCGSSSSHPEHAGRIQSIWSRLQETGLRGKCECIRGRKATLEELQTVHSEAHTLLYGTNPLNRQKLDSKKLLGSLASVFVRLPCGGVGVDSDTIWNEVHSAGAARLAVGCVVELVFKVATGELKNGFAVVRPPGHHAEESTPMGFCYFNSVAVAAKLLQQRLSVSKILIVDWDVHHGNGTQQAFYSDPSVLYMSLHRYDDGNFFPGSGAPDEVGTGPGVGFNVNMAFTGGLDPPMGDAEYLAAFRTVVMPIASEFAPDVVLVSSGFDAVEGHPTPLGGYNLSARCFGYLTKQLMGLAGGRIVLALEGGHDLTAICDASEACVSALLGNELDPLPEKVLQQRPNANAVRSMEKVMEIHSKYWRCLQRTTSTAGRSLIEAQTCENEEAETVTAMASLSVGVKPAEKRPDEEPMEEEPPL

[12] = molecular target: T1, Protein deacetylase HDAC6 (Homo sapiens, UniProt Q9UBN7); experiment: Inhibition of recombinant human HDAC6 expressed in baculovirus expression system using KI-104 as substrate incubated for 3 hrs by fluorescence-based assay
T1 sequence (Q9UBN7 whole entry): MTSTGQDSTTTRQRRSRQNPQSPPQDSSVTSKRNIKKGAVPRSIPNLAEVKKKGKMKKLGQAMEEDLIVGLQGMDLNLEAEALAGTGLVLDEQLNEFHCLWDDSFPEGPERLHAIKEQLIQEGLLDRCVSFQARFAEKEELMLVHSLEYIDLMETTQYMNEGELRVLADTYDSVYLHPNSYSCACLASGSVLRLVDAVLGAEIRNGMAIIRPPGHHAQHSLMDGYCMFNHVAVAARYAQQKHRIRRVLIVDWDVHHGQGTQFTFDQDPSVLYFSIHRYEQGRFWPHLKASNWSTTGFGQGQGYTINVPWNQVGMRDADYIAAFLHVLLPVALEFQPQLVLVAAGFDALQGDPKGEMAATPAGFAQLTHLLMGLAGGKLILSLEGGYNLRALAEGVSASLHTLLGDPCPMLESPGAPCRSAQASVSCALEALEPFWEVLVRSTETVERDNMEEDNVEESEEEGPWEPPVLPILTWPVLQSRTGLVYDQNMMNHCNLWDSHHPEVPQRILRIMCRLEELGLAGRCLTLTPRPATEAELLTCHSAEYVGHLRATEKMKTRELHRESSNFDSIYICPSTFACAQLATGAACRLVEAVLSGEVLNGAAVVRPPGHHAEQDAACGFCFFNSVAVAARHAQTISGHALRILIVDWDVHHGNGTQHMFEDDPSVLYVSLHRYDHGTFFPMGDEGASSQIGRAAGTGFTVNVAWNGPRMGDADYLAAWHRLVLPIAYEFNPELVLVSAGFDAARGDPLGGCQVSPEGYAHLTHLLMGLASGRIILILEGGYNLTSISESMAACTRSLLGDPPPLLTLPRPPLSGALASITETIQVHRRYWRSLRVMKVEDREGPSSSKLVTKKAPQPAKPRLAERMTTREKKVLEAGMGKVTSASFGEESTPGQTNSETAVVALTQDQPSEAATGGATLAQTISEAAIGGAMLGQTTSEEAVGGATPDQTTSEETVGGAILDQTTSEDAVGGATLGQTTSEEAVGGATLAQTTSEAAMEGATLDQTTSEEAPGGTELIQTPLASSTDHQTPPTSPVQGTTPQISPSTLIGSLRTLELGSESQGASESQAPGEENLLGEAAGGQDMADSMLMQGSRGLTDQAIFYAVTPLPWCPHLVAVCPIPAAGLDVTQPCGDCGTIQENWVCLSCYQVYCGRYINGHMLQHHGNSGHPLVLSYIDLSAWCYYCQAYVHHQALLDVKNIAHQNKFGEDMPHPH

[13] = tested on: Human immunodeficiency virus 1; experiment: Reactivation of HIV-1 latency in human ACH-2 cells assessed as fold increase in p24 expression at 1 uM incubated for 24 hrs by western blot analysis; assay type: functional, ACH-2 cell line
[14] = tested on: Human immunodeficiency virus 1; experiment: Reactivation of HIV-1 latency in human U1 cells assessed as fold increase in p24 expression at 1 uM incubated for 24 hrs by western blot analysis; assay type: functional
[15] = tested on: Human immunodeficiency virus 1; experiment: Reversal of HIV-1 latency in human ACH-2 cells assessed as increase in GFP positive cells incubated for 24 hrs by flow cytometry; assay type: functional, organism-based, ACH-2 cell line; details: Human immunodeficiency virus 1, ACH-2, 24 h
[16] = tested on: Human immunodeficiency virus 1; experiment: Reversal of HIV-1 latency infected in human U1 cells assessed as fold increase in p24 expression level at 15.6 nM incubated for 48 hrs by ELISA; assay type: functional
[17] = tested on: Human immunodeficiency virus 1; experiment: Reversal of HIV-1 latency infected in human ACH-2 cells assessed as fold increase in p24 expression level at 15.6 nM incubated for 48 hrs by ELISA; assay type: functional, ACH-2 cell line
[18] = tested on: Human immunodeficiency virus 1; experiment: Reversal of HIV-1 latency infected in human ACH-2 cells assessed as fold increase in p24 expression level at 31.1 nM incubated for 48 hrs by ELISA; assay type: functional, ACH-2 cell line
[19] = tested on: Human immunodeficiency virus 1; experiment: Reversal of HIV-1 latency infected in human U1 cells assessed as fold increase in p24 expression level at 31.1 nM incubated for 48 hrs by ELISA; assay type: functional
[20] = Inhibition of HIV-1 latency in human CD4+ve Th cells infected NL4.3-Luc virus assessed as p24 expression level incubated for 48 hrs by v450 dye based flow cytometry; assay type: functional, cell-based; details: Human immunodeficiency virus 1, CD4+ve Th
[21] = tested on: Human immunodeficiency virus 1; experiment: Reactivation of HIV-1 latency infected in human Th17 cells assessed as increase in HIV production by measuring phosphorylated S175 CDK9 levels at 10 nM incubated for 96 hrs by flow cytometry; assay type: functional
[22] = tested on: Human immunodeficiency virus 1; experiment: Reactivation of HIV-1 latency infected in human Th17 cells assessed as increase in HIV production by measuring phosphorylated S175 CDK9 levels at 1 uM incubated for 96 hrs by flow cytometry; assay type: functional
[23] = tested on: Human immunodeficiency virus 1; experiment: Reversal of HIV-1 latency infected in human J-Lat Tat-GFP Clone A7 cells assessed as increase in GFP expressing cells at 100 nM incubated for 72 hrs by flow cytometry analysis relative to control; assay type: functional
[24] = tested on: Human immunodeficiency virus 1; experiment: Reversal of HIV-1 latency infected in GFP-fused human J-Lat C11 cells assessed as increase in GFP expression at 2 uM incubated for 3 hrs by flow cytometry; assay type: functional

CC(C)=CC(=O)O[C@H]1C(C)=C[C@]23C(=O)[C@H](C=C(CO)[C@@H](O)[C@]12O)C1C(C[C@H]3C)C1(C)C (stereo not given in full)
EC50 [1]: 58 nM

CCCCCCCCCCCC(=O)OCC1=C[C@H]2C(=O)[C@]3(C=C(C)[C@H](OC(=O)CC(C)C(C)C)[C@@]3(O)[C@@H]1O)[C@H](C)CC1C2C1(C)C (stereo not given in full)
Activity [2]: 80% | Activity [3]: 90% | EC50 [4]: 3.53 nM | EC50 [1]: 4.06 nM | CC50 at 72 h [5]: 68.5 nM | CC50 at 72 h [6]: 94.2 nM

COc1cc2nc(N3CCCN(C)CC3)nc(NC3CCN(Cc4ccccc4)CC3)c2cc1OC
fold change (FC) [7]: 47 | fold change (FC) [8]: 47

COc1cc(OC)c2c(=O)[nH]c(-c3cc(C)c(OCCO)c(C)c3)nc2c1 [APABETALONE]
Activity [9]: 75%

Nc1ncn([C@@H]2O[C@H](CO)[C@@H](O)[C@H]2O)c(=O)n1 [AZACITIDINE]
fold change (FC) [10]: 47

O=C(/C=C/c1cccc(S(=O)(=O)Nc2ccccc2)c1)NO [BELINOSTAT]
EC50 [11]: 115 nM | EC50 [12]: 82 nM

CC[C@@H]1C(=O)N(C)c2cnc(Nc3ccc(C(=O)NC4CCN(C)CC4)cc3OC)nc2N1C1CCCC1 [BI-2536]
fold change (FC) [13]: 261 | fold change (FC) [14]: 177

CC(C)[C@H]1C(=O)N[C@H](CO)Cc2c[nH]c3cccc(c23)N1C [INDOLACTUM]
EC50 [15]: 47 nM

Cc1[nH]c2ccccc2c1CCNCc1ccc(/C=C/C(=O)NO)cc1 [PANOBINOSTAT]
fold change (FC) [16]: 12.8 | fold change (FC) [17]: 27.7 | fold change (FC) [18]: 51.8 | fold change (FC) [19]: 19.9 | EC50 [20]: 10 nM

CCN(c1cc(-c2ccc(CN3CCOCC3)cc2)cc(C(=O)NCc2c(C)cc(C)[nH]c2=O)c1C)C1CCOCC1 [TAZEMETOSTAT]
Activity [21]: 25% | Activity [22]: 35%

CC(/C=C/C(=O)NO)=C\[C@@H](C)C(=O)c1ccc(N(C)C)cc1 [TRICHOSTATIN]
Activity [23]: 21.3%

O=C(CCCCCCC(=O)Nc1ccccc1)NO [VORINOSTAT]
Activity [24]: 3.2%

Reference: ChEMBL document CHEMBL5096158, “HIV latency reversal agents: A potential path for functional cure?” (Eur J Med Chem, 2021)
